# Results: patent publication US20250134863A1, “MEDICAL AGENT FOR TREATING OR SUPPRESSING PROGRESSION OF AMYOTROPHIC LATERAL SCLEROSIS” (MITSUBISHI TANABE PHARMA CORPORATION, priority 2022, published 2025)
# System: ALS patients
# Assay: Propensity score matching cohort evaluation, EE group vs PRO-ACT placebo, ALSFRS-R total score
# Format: in vivo, human
# Procedure: In a sensitivity analysis, propensity score matching cohort evaluation was conducted to compare the baseline changes in ALSFRS-R total score at 48 weeks between the EE group from the 16 trial, the 17 trial, and the 19 trial, and a matching cohort from the Pooled Resource Open-Access ALS Clinical Trials Database (hereinafter PRO-ACT) database. The EE group and PRO-ACT placebo group were matched 1:1 using a caliper width of 0.2 of the log it of the propensity score. The propensity score was developed using baseline confounding factors and ALS progression variables (gender, body weight, age, duration of ALS disease, ALSFRS-R total score baseline, uric acid baseline) of the EE group. A balance after the matching was evaluated using a standardized mean difference of less than 0.1 (Reference 6: J Clin Epidemiol 2001; 54 (4): 387-398). The propensity score was added as an explanatory variable for the MMRM analysis. Further, a subgroup analysis of uric acid levels was performed using MMRM analysis within the matching cohort, and the change from baseline in the ALSFRS-R total score at 48 weeks was compared between the EE group and the PRO-ACT placebo group.
# [1] = uric acid level baseline <4.8 mg/dL
# [2] = uric acid level baseline ≥4.8 mg/dL
smiles,measurement,setting,value
"CC1=NN(c2ccccc2)C(=O)C1 [edaravone, 3-methyl-1-phenyl-2-pyrazolin-5-one]","ALSFRS-R total score at Cycle 12, Mean (SD)",Overall,32.8 (7.79) points
same,"ALSFRS-R total score change from baseline to cycle 12, LS Mean (SE)",Overall,−8.7±0.53 points
same,"ALSFRS-R total score change from baseline to cycle 12, Mean (SD)",Overall,−8.2 (6.16) points
same,"ALSFRS-R total score change from baseline to cycle 12, LSMD vs placebo PRO-ACT (SE)","Overall, 95% CI [0.71, 3.72], p=0.0041",2.21±0.77 points
same,"ALSFRS-R total score change from baseline to cycle 12, LS Mean (SE)","Overall, listed as Edaravone",−8.7 (0.53) points
same,"ALSFRS-R total score at Cycle 12, Mean (SD)",[1],31.3 (8.79) points
same,"ALSFRS-R total score change from baseline to cycle 12, LS Mean (SE)",[1],−10.3 (0.74) points
same,"ALSFRS-R total score change from baseline to cycle 12, Mean (SD)",[1],−9.6 (7.52) points
same,"ALSFRS-R total score at Cycle 12, Mean (SD)",[2],34.0 (6.75) points
same,"ALSFRS-R total score change from baseline to cycle 12, LS Mean (SE)",[2],−7.3 (0.73) points
same,"ALSFRS-R total score change from baseline to cycle 12, Mean (SD)",[2],−7.1 (4.58) points
